How the values were obtained:
Type in all cases: in vivo
Galium aparine [1] = assay: Pre-emergence test; conditions: 3 weeks after treatment
Procedure: (§1) To evaluate their herbicidal activity, compounds according to the invention are tested using a representative range of plants:
(§2) The pre-emergence tests involve spraying a liquid formulation of the compound onto the soil in which the seeds of the plant species mentioned above has recently been sown.
(§3) The soil used in the tests is a prepared horticultural loam. The formulations used in the tests are prepared from solutions of the test compounds in acetone containing 0.4% by weight of an alkyl-phenol/ethylene oxide condensate available under the trade mark TRITON X-155. These acetone solutions are diluted with water and the resulting formulations applied at dosage levels corresponding to 0.013 kg, 0.025 kg, 0.100 kg or 0.400 kg of active material per hectare in a volume equivalent to 900 litres per hectare. In these tests untreated sown soil are used as controls. From 2 to 4 weeks after treatment, the tests are terminated and each pot is examined and rated according to the rating system set forth below: […]

Matricaria inodora [2] = assay: Pre-emergence test; conditions: 3 weeks after treatment
Procedure: as §1, §2, §3

Ipomoea hederacea [3] = assay: Pre-emergence test; conditions: 0.400 kg/ha, 3 weeks after treatment
Procedure: as §1, §2, §3

Orysa sativa [4] = assay: Pre-emergence test; conditions: 3 weeks after treatment
Procedure: as §1, §2, §3

Glycine max [5] = assay: Pre-emergence test; conditions: 0.400 kg/ha, 3 weeks after treatment
Procedure: as §1, §2, §3

Abutilon theophrasti [6] = assay: Pre-emergence test; conditions: 0.400 kg/ha, 3 weeks after treatment
Procedure: as §1, §2, §3

Stellaria media [7] = assay: Pre-emergence test; conditions: 3 weeks after treatment
Procedure: as §1, §2, §3

Triticum aestivum [8] = assay: Pre-emergence test; conditions: 3 weeks after treatment
Procedure: as §1, §2, §3

Zea mays [9] = assay: Pre-emergence test; conditions: 3 weeks after treatment
Procedure: as §1, §2, §3

Echinochloa crus-galli [10] = assay: Pre-emergence test; conditions: 3 weeks after treatment
Procedure: as §1, §2, §3

Setaria viridis [11] = assay: Pre-emergence test; conditions: 3 weeks after treatment
Procedure: as §1, §2, §3

Cassia obtusifolia [12] = assay: Pre-emergence test; conditions: 3 weeks after treatment
Procedure: as §1, §2, §3

Digitaria sanguinalis [13] = assay: Pre-emergence test; conditions: 3 weeks after treatment
Procedure: as §1, §2, §3

Alopecurus myosuroides [14] = assay: Pre-emergence test; conditions: 3 weeks after treatment
Procedure: as §1, §2, §3

Lamium purpureum = assay: Pre-emergence test; conditions: 3 weeks after treatment
Procedure: as §1, §2, §3

Galium aparine [15] = assay: Post-emergence herbicidal activity test; conditions: 2-4 weeks after treatment
Procedure: as §1
(§4) These acetone solutions are diluted with water and the resulting formulations applied at dosage levels equivalent of about 0.025 to 0. 4 kg per hectare of test compound per pot. After spraying the plants are placed on greenhouse benches and are cared for in the usual manner, commensurate with conventional greenhouse practices. From 2 to 4 weeks after treatment, the seedling plants are examined and rated according to the rating system provided above.

Matricaria inodora [16] = assay: Post-emergence herbicidal activity test; conditions: 2-4 weeks after treatment
Procedure: as §1, §4

Ipomoea hederacea [17] = assay: Post-emergence herbicidal activity test; conditions: 2-4 weeks after treatment
Procedure: as §1, §4

Orysa sativa [18] = assay: Post-emergence herbicidal activity test; conditions: 2-4 weeks after treatment
Procedure: as §1, §4

Glycine max [19] = assay: Post-emergence herbicidal activity test; conditions: 2-4 weeks after treatment
Procedure: as §1, §4

Abutilon theophrasti [20] = assay: Post-emergence herbicidal activity test; conditions: 2-4 weeks after treatment
Procedure: as §1, §4

Stellaria media [21] = assay: Post-emergence herbicidal activity test; conditions: 2-4 weeks after treatment
Procedure: as §1, §4

Triticum aestivum [22] = assay: Post-emergence herbicidal activity test; conditions: 2-4 weeks after treatment
Procedure: as §1, §4

Zea mays [23] = assay: Post-emergence herbicidal activity test; conditions: 2-4 weeks after treatment
Procedure: as §1, §4

Echinochloa crus-galli [24] = assay: Post-emergence herbicidal activity test; conditions: 2-4 weeks after treatment
Procedure: as §1, §4

Setaria viridis [25] = assay: Post-emergence herbicidal activity test; conditions: 2-4 weeks after treatment
Procedure: as §1, §4

Cassia obtusifolia [26] = assay: Post-emergence herbicidal activity test; conditions: 2-4 weeks after treatment
Procedure: as §1, §4

Digitaria sanguinalis [27] = assay: Post-emergence herbicidal activity test; conditions: 2-4 weeks after treatment
Procedure: as §1, §4

Alopecurus myosuroides [28] = assay: Post-emergence herbicidal activity test; conditions: 2-4 weeks after treatment
Procedure: as §1, §4

SMILES: Cn1nc(C(F)(F)F)cc1Oc1cccc(C#Cc2ccccc2)n1 [Example 31]
- Assessment (pre-emergence application) GALAP (Galium aparine [1]; 0.025 kg/ha): 1 (1-Trace effect)
- Assessment (pre-emergence application) GALAP (Galium aparine [1]; 0.100 kg/ha): 2 (2-Slight effect)
- Assessment (pre-emergence application) MATIN (Matricaria inodora [2]; 0.025 kg/ha): 2 (2-Slight effect)
- Assessment (pre-emergence application) MATIN (Matricaria inodora [2]; 0.100 kg/ha): 6 (6-Herbicidal effect)
- Assessment (pre-emergence application) MATIN (Matricaria inodora [2]; 0.400 kg/ha): 7 (7-Good herbicidal effect)
- Assessment (pre-emergence application) IPOHE (Ipomoea hederacea [3]): 2 (2-Slight effect)
- Assessment (pre-emergence application) ORYSA (Orysa sativa [4]; 0.025 kg/ha): 0 (0-No effect)
- Assessment (pre-emergence application) ORYSA (Orysa sativa [4]; 0.100 kg/ha): 1 (1-Trace effect)
- Assessment (pre-emergence application) ORYSA (Orysa sativa [4]; 0.400 kg/ha): 1 (1-Trace effect)
- Assessment (pre-emergence application) GLXMA (Glycine max [5]): 1 (1-Trace effect)
- Assessment (pre-emergence application) ABUTH (Abutilon theophrasti [6]): 2 (2-Slight effect)
- Assessment (pre-emergence application) STEME (Stellaria media [7]; 0.025 kg/ha): 2 (2-Slight effect)
- Assessment (pre-emergence application) STEME (Stellaria media [7]; 0.100 kg/ha): 8 (8-Approaching complete kill)
- Assessment (pre-emergence application) STEME (Stellaria media [7]; 0.400 kg/ha): 9 (9-Complete kill)
- Assessment (pre-emergence application) TRZWA (Triticum aestivum [8]; 0.025 kg/ha): 0 (0-No effect)
- Assessment (pre-emergence application) TRZWA (Triticum aestivum [8]; 0.100 kg/ha): 0 (0-No effect)
- Assessment (pre-emergence application) TRZWA (Triticum aestivum [8]; 0.400 kg/ha): 0 (0-No effect)
- Assessment (pre-emergence application) ZEAMX (Zea mays [9]; 0.025 kg/ha): 1 (1-Trace effect)
- Assessment (pre-emergence application) ZEAMX (Zea mays [9]; 0.100 kg/ha): 2 (2-Slight effect)
- Assessment (pre-emergence application) ZEAMX (Zea mays [9]; 0.400 kg/ha): 2 (2-Slight effect)
- Assessment (pre-emergence application) ECHCG (Echinochloa crus-galli [10]; 0.025 kg/ha): 0 (0-No effect)
- Assessment (pre-emergence application) ECHCG (Echinochloa crus-galli [10]; 0.100 kg/ha): 2 (2-Slight effect)
- Assessment (pre-emergence application) ECHCG (Echinochloa crus-galli [10]; 0.400 kg/ha): 5 (5-Definite injury)
- Assessment (pre-emergence application) SETVI (Setaria viridis [11]; 0.025 kg/ha): 2 (2-Slight effect)
- Assessment (pre-emergence application) SETVI (Setaria viridis [11]; 0.100 kg/ha): 6 (6-Herbicidal effect)
- Assessment (pre-emergence application) SETVI (Setaria viridis [11]; 0.400 kg/ha): 8 (8-Approaching complete kill)
- Assessment (pre-emergence application) CASOB (Cassia obtusifolia [12]; 0.025 kg/ha): 1 (1-Trace effect)
- Assessment (pre-emergence application) CASOB (Cassia obtusifolia [12]; 0.100 kg/ha): 3 (3-Moderate effect)
- Assessment (pre-emergence application) CASOB (Cassia obtusifolia [12]; 0.400 kg/ha): 3 (3-Moderate effect)
- Assessment (pre-emergence application) DIGSA (Digitaria sanguinalis [13]; 0.025 kg/ha): 2 (2-Slight effect)
- Assessment (pre-emergence application) DIGSA (Digitaria sanguinalis [13]; 0.100 kg/ha): 5 (5-Definite injury)
- Assessment (pre-emergence application) DIGSA (Digitaria sanguinalis [13]; 0.400 kg/ha): 8 (8-Approaching complete kill)
- Assessment (pre-emergence application) ALOMY (Alopecurus myosuroides [14]; 0.025 kg/ha): 0 (0-No effect)
- Assessment (pre-emergence application) ALOMY (Alopecurus myosuroides [14]; 0.100 kg/ha): 1 (1-Trace effect)
- Assessment (pre-emergence application) ALOMY (Alopecurus myosuroides [14]; 0.400 kg/ha): 3 (3-Moderate effect)
- Assessment (pre-emergence application) LAMPU (Lamium purpureum; 0.025 kg/ha): 7 (7-Good herbicidal effect)
- Assessment (pre-emergence application) LAMPU (Lamium purpureum; 0.100 kg/ha): 8 (8-Approaching complete kill)
- Assessment (pre-emergence application) LAMPU (Lamium purpureum; 0.400 kg/ha): 8 (8-Approaching complete kill)
- Post-emergence application GALAP (Galium aparine [15]; 0.100 kg/ha): 4 (4-Injury)
- Post-emergence application GALAP (Galium aparine [15]; 0.400 kg/ha): 6 (6-Herbicidal effect)
- Post-emergence application MATIN (Matricaria inodora [16]; 0.100 kg/ha): 3 (3-Moderate effect)
- Post-emergence application MATIN (Matricaria inodora [16]; 0.400 kg/ha): 4 (4-Injury)
- Post-emergence application IPOHE (Ipomoea hederacea [17]; 0.100 kg/ha): 7 (7-Good herbicidal effect)
- Post-emergence application IPOHE (Ipomoea hederacea [17]; 0.400 kg/ha): 8 (8-Approaching complete kill)
- Post-emergence application ORYSA (Orysa sativa [18]; 0.100 kg/ha): 1 (1-Trace effect)
- Post-emergence application ORYSA (Orysa sativa [18]; 0.400 kg/ha): 2 (2-Slight effect)
- Post-emergence application GLXMA (Glycine max [19]; 0.100 kg/ha): 4 (4-Injury)
- Post-emergence application GLXMA (Glycine max [19]; 0.400 kg/ha): 4 (4-Injury)
- Post-emergence application ABUTH (Abutilon theophrasti [20]; 0.100 kg/ha): 3 (3-Moderate effect)
- Post-emergence application ABUTH (Abutilon theophrasti [20]; 0.400 kg/ha): 5 (5-Definite injury)
- Post-emergence application STEME (Stellaria media [21]; 0.100 kg/ha): 5 (5-Definite injury)
- Post-emergence application STEME (Stellaria media [21]; 0.400 kg/ha): 6 (6-Herbicidal effect)
- Post-emergence application TRZWA (Triticum aestivum [22]; 0.100 kg/ha): 1 (1-Trace effect)
- Post-emergence application TRZWA (Triticum aestivum [22]; 0.400 kg/ha): 2 (2-Slight effect)
- Post-emergence application ZEAMX (Zea mays [23]; 0.100 kg/ha): 2 (2-Slight effect)
- Post-emergence application ZEAMX (Zea mays [23]; 0.400 kg/ha): 3 (3-Moderate effect)
- Post-emergence application ECHCG (Echinochloa crus-galli [24]; 0.100 kg/ha): 3 (3-Moderate effect)
- Post-emergence application ECHCG (Echinochloa crus-galli [24]; 0.400 kg/ha): 5 (5-Definite injury)
- Post-emergence application SETVI (Setaria viridis [25]; 0.100 kg/ha): 5 (5-Definite injury)
- Post-emergence application SETVI (Setaria viridis [25]; 0.400 kg/ha): 7 (7-Good herbicidal effect)
- Post-emergence application CASOB (Cassia obtusifolia [26]; 0.100 kg/ha): 6 (6-Herbicidal effect)
- Post-emergence application CASOB (Cassia obtusifolia [26]; 0.400 kg/ha): 6 (6-Herbicidal effect)
- Post-emergence application DIGSA (Digitaria sanguinalis [27]; 0.100 kg/ha): 4 (4-Injury)
- Post-emergence application DIGSA (Digitaria sanguinalis [27]; 0.400 kg/ha): 4 (4-Injury)
- Post-emergence application ALOMY (Alopecurus myosuroides [28]; 0.100 kg/ha): 3 (3-Moderate effect)
- Post-emergence application ALOMY (Alopecurus myosuroides [28]; 0.400 kg/ha): 5 (5-Definite injury)
